ChEMBL document CHEMBL1136514, “Synthesis and evaluation of delta-lactams (piperazones) as elastase inhibitors” (Bioorg Med Chem Lett, 2003)

Assays:
Neutrophil elastase [1] = biological target: T1, Neutrophil elastase (Homo sapiens, UniProt P08246); assay: Inhibitory concentration against human neutrophil elastase (HNE); No inhibition
T1 sequence (P08246 whole entry): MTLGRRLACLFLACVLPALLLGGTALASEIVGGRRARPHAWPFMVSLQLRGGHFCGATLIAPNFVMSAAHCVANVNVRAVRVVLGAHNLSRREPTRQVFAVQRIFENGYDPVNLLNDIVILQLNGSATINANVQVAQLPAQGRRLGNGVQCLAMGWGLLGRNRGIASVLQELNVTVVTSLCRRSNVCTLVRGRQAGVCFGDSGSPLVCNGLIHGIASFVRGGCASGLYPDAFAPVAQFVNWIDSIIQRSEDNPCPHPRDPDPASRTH

Neutrophil elastase [2] = biological target: T1, Neutrophil elastase; assay: Inhibitory concentration against human neutrophil elastase (HNE)
[3] = biological target: T2, Chymotrypsin-like elastase family member 2A (Sus scrofa, UniProt P08419); assay: Inhibitory concentration against porcine pancreatic elastase (PPE); No inhibition
T2 sequence (P08419 whole entry): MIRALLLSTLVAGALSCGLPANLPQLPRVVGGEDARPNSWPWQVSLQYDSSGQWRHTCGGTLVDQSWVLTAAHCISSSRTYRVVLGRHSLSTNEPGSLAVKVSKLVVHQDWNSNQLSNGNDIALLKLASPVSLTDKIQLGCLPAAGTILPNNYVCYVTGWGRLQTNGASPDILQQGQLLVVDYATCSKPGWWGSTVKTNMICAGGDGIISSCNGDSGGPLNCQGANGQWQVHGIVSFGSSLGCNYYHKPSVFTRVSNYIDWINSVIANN

Structure (SMILES) | IC50 (Neutrophil elastase [1]) | IC50 (Neutrophil elastase [2]) [µM] | IC50 [3]
CCC(C)[C@H]1C(=O)N(Cc2ccccc2)CCN1S(=O)(=O)c1ccc(C)cc1 (stereo partly specified) | Not Active |  | 
Cc1ccc(S(=O)(=O)N2CCN(Cc3ccccc3)C(=O)[C@@H]2CC(C)C)cc1 |  | 28 | 
CCC(C)[C@H]1C(=O)NCCN1C(=O)OC(C)(C)C (stereo partly specified) | Not Active |  | Not Active
CCC(C)[C@@H]1NCCNC1=O (stereo partly specified) | Not Active |  | Not Active
CCC(C)[C@@H]1NCCN(Cc2ccccc2)C1=O (stereo partly specified) | Not Active |  | Not Active
CC(C)C[C@H]1C(=O)NCCN1C(=O)OC(C)(C)C | Not Active |  | Not Active
CC(C)C[C@@H]1NCCN(Cc2ccccc2)C1=O | Not Active |  | Not Active
CC(C)C[C@@H]1NCCNC1=O | Not Active |  | Not Active
CCC(C)[C@H]1C(=O)N(S(=O)(=O)c2ccc(C)cc2)CCN1S(=O)(=O)c1ccc(C)cc1 (stereo partly specified) | Not Active |  | Not Active
